Experimental data as given in ChEMBL document CHEMBL3272342, “Nonsteroidal antiinflammatory agents. 2. Synthesis and biological activity of 2-chloroindolecarboxylic acids” (J Med Chem, 1977).

Legend:
Rattus norvegicus [1] = assay: Antiinflammatory activity in Wistar rat assessed as inhibition of carrageenan-induced edema measured as increase in foot volume at 5 mg/kg, po administered 1 hr prior challenge measured 7 hrs after carrageenin injection (reference value: 178.8 %); format: functional; parameters: scale not given: the % may be the effect or the level left
Rattus norvegicus [2] = assay: Antiinflammatory activity in Wistar rat assessed as inhibition of carrageenan-induced edema measured as increase in foot volume at 5 mg/kg, po administered 1 hr prior challenge measured 3 hrs after carrageenin injection (reference value: 187.6 %); format: functional; parameters: scale not given: the % may be the effect or the level left
Rattus norvegicus [3] = assay: Antiinflammatory activity in Wistar rat assessed as inhibition of carrageenan-induced edema measured as increase in foot volume at 20 mg/kg, po administered 1 hr prior challenge measured 3 hrs after carrageenin injection (reference value: 187.6 %); format: functional; parameters: scale not given: the % may be the effect or the level left
Rattus norvegicus [4] = assay: Antiinflammatory activity in Wistar rat assessed as inhibition of carrageenan-induced edema measured as increase in foot volume at 20 mg/kg, po administered 1 hr prior challenge measured 7 hrs after carrageenin injection (reference value: 178.8 %); format: functional; parameters: scale not given: the % may be the effect or the level left
Rattus norvegicus [5] = assay: Antiinflammatory activity in Wistar rat assessed as inhibition of carrageenan-induced edema measured as increase in foot volume at 40 mg/kg, po administered 1 hr prior challenge measured 7 hrs after carrageenin injection (reference value: 178.8 %); format: functional; parameters: scale not given: the % may be the effect or the level left
Rattus norvegicus [6] = assay: Antiinflammatory activity in Wistar rat assessed as inhibition of carrageenan-induced edema measured as increase in foot volume at 40 mg/kg, po administered 1 hr prior challenge measured 3 hrs after carrageenin injection (reference value: 187.6 %); format: functional; parameters: scale not given: the % may be the effect or the level left
[7] = Toxicity in ip dosed Swiss mouse; format: organism-based; conditions: in vivo

Row | Structure (SMILES) | Activity (Rattus norvegicus [1]) | Activity (Rattus norvegicus [2]) | Activity (Rattus norvegicus [3]) | Activity (Rattus norvegicus [4]) | Activity (Rattus norvegicus [5]) | Activity (Rattus norvegicus [6]) | LD50 [7]
1 | COc1ccc2c(c1)c(CC(=O)O)c(C)n2C(=O)c1ccc(Cl)cc1 [INDOMETHACIN] | 106.8% | 98.5% |  |  |  |  | 
2 | Cn1c(Cl)c(C(=O)O)c2ccccc21 | 133.3% | 145.1% | 146.5% | 133.8% | 150.7% | 148.3% | > 500 mg/kg
3 | O=C(O)c1c(Cl)n(-c2ccccc2)c2ccccc12 | 151.4% | 159.8% | 149.4% | 130.1% | 201.1% | 173.8% | > 500 mg/kg
4 | O=C(O)c1c(Cl)[nH]c2ccccc12 | 143.4% | 153.1% | 161.7% | 153.5% | 132.1% | 156.4% | > 500 mg/kg
5 | O=C(O)Cc1c(Cl)n(-c2ccccc2)c2ccccc12 | 200.9% | 170.3% | 165.9% | 191.8% | 186.4% | 138% | > 500 mg/kg
